From publication PMC6459586, “Structure-Based Design of MptpB Inhibitors That Reduce Multidrug-Resistant Mycobacterium tuberculosis Survival and Infection Burden in Vivo” (Journal of Medicinal Chemistry, 2018) come the findings set out here.

In brackets after ≈: the same amount, converted by molar mass.

The IC50 is the point on the concentration scale where inhibition reaches its midpoint. Higher therefore signals weaker potency. As usually defined, the solubility is the dissolved amount per volume that the medium holds. For orientation: logD means lipophilicity at a set pH, counting ionised and neutral species. Read a high logD as a more lipophilic compound. Broadly, the Papp is the rate of passage across a membrane or cell layer, normalised by area and donor concentration. Lower therefore signals poor permeation. For orientation: fraction unbound means the share of the substance not bound to proteins or other matrix. For orientation: efflux ratio means the permeability from basolateral to apical divided by that in the opposite direction, in the common usage.

The target in one data set is MptpB (Mycobacterium tuberculosis, UniProt I6WXK4). Nature of the data set: biochemical. Also on record: species or system M. tuberculosis.
A short description of a further data set: physchem. Format: physicochemical. The following applies: for logD: pH 7.4. As to the method:
(§1) C = (CD(t) × VD) + (CA(t) × VA )
(§2) % Mass Retention = 1 − (CD(t) × VD) + (CA(t) × VA)
(§3) A = Filter Area, VD = Donor Well Volume, VA = Acceptor Well Volume, t = incubation time (secs), CA(t) = Acceptor concentration at time t, CD(t) =Donor concentration at time t, C0 = Initial Donor concentration.
(§4) No Permeability is reported for compounds where % Mass Retention exceeds 50%.
(§5) ADME determinations for compounds in Suppl. Table 2 (Data kindly supplied by […]
(§6) The chemicals used in the assay were supplied by Sigma Aldrich. Briefly, 30 µL of a 20 mM stock solution of the compound to test was added to a vial containing 1. 5 mL of pH 7.4 phosphate buffer saturated octanol and 1.5 mL of octanol saturated pH 7.4 phosphate buffer. The vial was then shaken on a reciprocating shaker at 125 rpm for 40 min.
(§7) Following centrifugation to ensure phase separation, the concentration of the compound in both the octanol and buffer phases was measured by LC -UV. The Log D was then calculated as the Log of ratio of the concentration of compound in the octanol phase to that in the […]
(§8) 1 mL of buffer was added to 1.0 mg of compound and then incubated for 24 hr (Bioshake iQ, 650 rpm, 25 °C). Following filtration under positive pressure, the concentration of compound in solution was assessed by LC -UV in comparison to the response for a kno wn […]
(§9) A known concentration of drug in plasma (20 µM) was dialysed against phosphate buffer for 18 hr at 37 °C. The concentration of compound in the protein-containing and protein-free sides of the dialysis plate were determined by LC-MS/MS. The methodology uses either 100% plasma or plasma diluted with phosphate buffer. The routine operation of the assay employed 10% plasma diluted with phosphate buffer to enable the detection of highly bound compounds. Results were corrected to reflect the result if diluted plasma was […]
(§10) Briefly, monolayer integrity was measured before the assay was initiated measuring the transepithelial electrical resistance values (Ω). Compound was added to either apical (A) or basolateral (B) chamber at a final concentration of 10 µM and after 2 hr incubation at 37 °C, an aliquot from the opposite side of the monolayer was removed and quantified by LC-MS/MS. The apparent permeability (P app) was calculated using Equation 6 :
(§11) Papp [cm.s-1] = (V/(A.C i)) × (Cf/T) Eq.6
(§12) Where V = volume of recipient chamber (mL), A = surface area of membrane insert (cm2), Ci = initial concentration of compound (µM), Cf = final concentration of compound (µM), T = assay time (s). Efflux ratio = Papp B to A / Papp A to B.

Data set [1] is classed as in vitro ADME. The following applies: human, microsomes, 1 µM. The protocol: Data analysis was performed using Excel (Microsoft, USA).
Human liver microsomes were commercially obtained (Invitrogen, USA). All microsomes were stored at -80 °C. Liver microsomal stability studies were performed manually using the substrate depletion approach, drug was incubated at 37 °C with human liver microsomes (0.5 mg.mL-1) at a final substrate concentration of 1 µM. Aliquots were removed from the incubation at 0, 5, 15, 30 and 45 min and the reaction was terminated by adding to ice-cold organic solvent. Compound concentrations were determined by LC-MS/MS analysis. The natural log of the percentage of compound remaining was plotted against each time point and the slope determined. The half-life (t1/2) and CLint were calculated using Equations 1 and 2, respectively.
CLint (µL.min-1.mg-1) = (LN(2)/t1/2(min))*1000/microsomal protein (mg.mL-1)a Eq. 2 a or cell density (106 cells.mL-1) or P450 concentration (pmol.mL-1)
Percentage liver blood flow (%LBF) was determined by dividing Cl by liver blood flow (20.7 mL/min/kg). Data analysis was performed using Excel (Microsoft, USA).

A short description of data set [2]: Pharmacokinetic evaluation in guinea pigs. Format: in vivo. The following applies: guinea pig; for AUCinf / Cmax: in vivo, po; for t1/2: oral, dose mg/kg: 13 8, 5 5, 8 3.5, 9 5. The protocol:
Guinea pig males (Durkin Hartley) were used to evaluate the pharmacokinetics and tissue distribution of compounds. The route of administration was either intraperitoneal (ip) or oral (po) with dosage varying from 3.5 to 8 mg kg^–1 (op) and 2.5–4 mg kg^–1 (ip). In each case 4 samples were collected per time point at 0.1, 0.5, 2, 4, and 8 h post dose for ip and 0.25, 0.5, 2, 4, and 8 h post dose for po. Compounds were prepared in 10% DMSO, 5% Cremaphor, and 85% physiological saline for IP administration or 0.5% (v/v) Tween 80, 99.5% (v/v) 0.5% methylcellulose for oral administration. Tissue samples (n = 4) from lung, liver, and kidney were collected at the end of the study and snap frozen prior to bioanalysis.

Data set [3] is described as follows: in vitro. It counts as in vitro ADME, canine. The following applies: dog, MDCK. As to the method:
as §1, §2, §3, §4, §5, §6, §7, §8, §9, §10, §11, §12

Data set [4] is described as follows: in vitro. It counts as in vitro ADME. The following applies: plasma. The protocol: as §1, §2, §3, §4, §5, §6, §7, §8
A known concentration of drug in plasma (20 µM) was dialysed against phosphate buffer for 18 hr at 37 °C. The concentration of compound in the protein-containing and protein-free sides of the dialysis plate were determined by LC-MS/MS. The methodology uses either 100% plasma or plasma diluted with phosphate buffer. […]
Briefly, monolayer integrity was measured before the assay was initiated measuring the transepithelial electrical resistance values (Ω). Compound was added to either apical (A) or basolateral (B) chamber at a final concentration of 10 µM and after 2 hr incubation at 37 °C, an aliquot from the opposite side of the monolayer was removed and quantified by LC-MS/MS. The apparent permeability (P app) was calculated using Equation 6 : […]

The test system of the next data set is M. tuberculosis. Format: in vivo, guinea pig.
The subject of a further data set is M. tuberculosis H37Rv. Nature of the data set: Acute guinea pig model of TB infection. The following applies: 28 days of treatment, oral daily, 13 100 mg/kg, RIF 50 mg/kg. Format: in vivo.
The mark [5] stands for this setting: chronic model, 28 days of treatment from day 28, oral daily, 13 100 mg/kg, RIF 50 mg/kg.

Chain of MptpB (I6WXK4 whole entry, looked up): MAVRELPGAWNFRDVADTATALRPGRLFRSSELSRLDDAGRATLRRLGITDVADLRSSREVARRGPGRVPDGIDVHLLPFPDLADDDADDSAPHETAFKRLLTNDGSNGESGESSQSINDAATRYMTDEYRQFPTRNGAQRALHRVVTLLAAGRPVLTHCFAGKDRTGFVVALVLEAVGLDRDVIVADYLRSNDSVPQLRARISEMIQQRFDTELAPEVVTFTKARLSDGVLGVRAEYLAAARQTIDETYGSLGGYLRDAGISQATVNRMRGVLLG

In the case of `O=C(O)c1cc(-c2ccccc2)on1` [Compound 1, 5-Phenylisoxazole-3-carboxylic Acid], the IC50 against MptpB (IC50 (molecular formula strings csv)) and on MptpB (IC50 MptpB) was more than 500 µM in each case.

In “physchem”, `O=C(O)c1noc(-c2ccccc2)c1-c1cccc(-c2cc(Cl)c(O)c(Cl)c2)c1` [Compound 5, 4-(3′,5′-Dichloro-4′-hydroxy-3-biphenyl)-5-phenylisoxazole-3-carboxylic Acid] showed a solubility at 24 h of 1.18 mg/mL (≈ 2.78 mM) and a logD of 0.84. Also, the “HLM CLint (% LBF)” value in data set [1] amounted to 31 % LBF. In data set [2], the AUCinf result is listed as “BLQ”, the Cmax result is “BLQ” and the t1/2 entry is reported as “BLQ”. In the data set “in vitro [3]”, this compound gave a Papp at 2 h, 10 µM of 8 nm/s.

Regarding `O=C(O)c1noc(-c2ccccc2)c1-c1cccc(-c2cc(Cl)cc(Cl)c2)c1` [Compound 8, 4-(3′,5′-Dichoro-3-biphenyl)-5-phenylisoxazole-3-carboxylic Acid], in data set [2], the AUCinf entry is “BLQ”, the Cmax result is on record as “BLQ” and the t1/2 result was “BLQ”.

Take `Cc1cc(-c2cccc(-c3c(C(=O)O)noc3-c3ccccc3)c2)cc(C)c1O` [Compound 9, 4-(3′,5′-Dimethyl-4′-hydroxy-3-biphenyl)-5-phenylisoxazole-3-carboxylic Acid]: in the data set “physchem”, the solubility at 24 h is more than 1.25 mg/mL and the logD turned out to be 1.37. In addition, the “HLM CLint (% LBF)” value in data set [1] turned out to be 36.4 % LBF. In addition, the fraction unbound at 18 h, 20 µM in the data set “in vitro [4]” amounted to 0.001. Moreover, in data set [2], the AUCinf result is given as “BLQ”, the Cmax result is on record as “BLQ” and the t1/2 entry is on record as “BLQ”. This compound also came in with a Papp at 2 h, 10 µM in the data set “in vitro [3]” of 58 nm/s.

In “physchem”, `O=C(O)c1noc(-c2ccccc2)c1-c1cccc(-c2ccc(O)c(Cl)c2)c1` [Compound 10, 4-(3′-Chloro-4′-hydroxy-3-biphenyl)-5-phenylisoxazole-3-carboxylic Acid] yielded a solubility at 24 h of more than 1.25 mg/mL and a logD of 1.3. Moreover, in data set [1], the “HLM CLint (% LBF)” value was found to be 33 % LBF. Further, in “in vitro [4]”, the fraction unbound at 18 h, 20 µM was 0.001. Further, in the data set “in vitro [3]”, the Papp at 2 h, 10 µM came to 33 nm/s and the efflux ratio at 2 h, 10 µM came to 0.8.

In the data set “physchem”, `O=C(O)c1noc(-c2ccccc2)c1-c1cccc(-c2ccc(O)c(F)c2)c1` [Compound 11, 4-(3′-Fluoro-4′-hydroxy-3-biphenyl)-5-phenylisoxazole-3-carboxylic Acid] registered a solubility at 24 h of more than 1.25 mg/mL and a logD of 0.67. Also, the “HLM CLint (% LBF)” value in data set [1] stood at 47.7 % LBF. The fraction unbound at 18 h, 20 µM in the data set “in vitro [4]” came out at 0.002. Also, in “in vitro [3]”, the Papp at 2 h, 10 µM was determined as 27 nm/s and the efflux ratio at 2 h, 10 µM stood at 0.7.

In the case of `CO[C@H]1/C=C/O[C@@]2(C)Oc3c(C)c(O)c4c(O)c(c(/C=N/N5CCN(C)CC5)c(O)c4c3C2=O)NC(=O)/C(C)=C\C=C\[C@H](C)[C@H](O)[C@@H](C)[C@@H](O)[C@@H](C)[C@H](OC(C)=O)[C@@H]1C` [RIF, rifampicin, reference compound], in the data set on M. tuberculosis (setting [5]), the “Lungs infection burden, average” value turned out to be 3.7 log CFU; the “Lungs log reduction relative to vehicle” value amounted to 2.0 log; the “Spleen infection burden, average” value is listed as “BLQ”; the “Spleen log reduction relative to vehicle” value is listed as more than 5.0 log. In the data set on M. tuberculosis (guinea pig, in vivo), the “Lungs weight % change relative to Vehicle” value is on record as -29%; the “Lungs weight, average” value is recorded as 3.8 g; the “Spleen weight % change relative to Vehicle” value was -73%; the “Spleen weight, average” value was 0.7 g. In the data set with M. tuberculosis H37Rv, the “Lungs infection burden, average” value was “BLQ” and the “Spleen infection burden, average” value is recorded as “BLQ”.
